Reference: patent US10870832B2, “Use of small molecules to enhance MAFA expression in pancreatic endocrine cells” (Janssen Biotech, Inc., priority 2014, dated 2020)

Columns and labels:
Assay in all cases: Kinase profiling of R428
Format in all cases: biochemical
Eph A 2(h) = Eph A 2(h) (Homo sapiens, UniProt P29317); settings: 100 μM ATP, lower number = more robust inhibition
Experimental: (§1) The efficiency of the AXL inhibitor R428 for targeting different kinases was assessed by Kinase Profiling Services using 100 μM ATP concentration (EMD Millipore). R428 was tested at 1 and 10 μM. Table IV lists the kinases profiled along with the efficiency in targeting the kinases with a lower number indicating a more robust inhibition of a particular kinase.

NEK2(h) = NEK2(h) (Homo sapiens, UniProt P51955); settings: 100 μM ATP, lower number = more robust inhibition
Sequence of NEK2(h) (P51955 whole entry): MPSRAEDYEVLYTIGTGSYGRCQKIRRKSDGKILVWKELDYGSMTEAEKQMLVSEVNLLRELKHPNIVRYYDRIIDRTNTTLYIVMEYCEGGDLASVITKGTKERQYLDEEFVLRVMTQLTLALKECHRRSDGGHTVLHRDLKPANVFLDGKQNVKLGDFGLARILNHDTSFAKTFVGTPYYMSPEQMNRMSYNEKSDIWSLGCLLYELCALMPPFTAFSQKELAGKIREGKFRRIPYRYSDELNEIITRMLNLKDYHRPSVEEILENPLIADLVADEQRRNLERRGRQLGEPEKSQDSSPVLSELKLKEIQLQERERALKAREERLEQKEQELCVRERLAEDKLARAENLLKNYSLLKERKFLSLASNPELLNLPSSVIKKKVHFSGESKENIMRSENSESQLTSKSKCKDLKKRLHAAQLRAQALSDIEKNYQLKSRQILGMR
Experimental: as §1

CLK2(h) = CLK2(h) (Homo sapiens, UniProt P49760); settings: 100 μM ATP, lower number = more robust inhibition
Sequence of CLK2(h) (P49760 whole entry): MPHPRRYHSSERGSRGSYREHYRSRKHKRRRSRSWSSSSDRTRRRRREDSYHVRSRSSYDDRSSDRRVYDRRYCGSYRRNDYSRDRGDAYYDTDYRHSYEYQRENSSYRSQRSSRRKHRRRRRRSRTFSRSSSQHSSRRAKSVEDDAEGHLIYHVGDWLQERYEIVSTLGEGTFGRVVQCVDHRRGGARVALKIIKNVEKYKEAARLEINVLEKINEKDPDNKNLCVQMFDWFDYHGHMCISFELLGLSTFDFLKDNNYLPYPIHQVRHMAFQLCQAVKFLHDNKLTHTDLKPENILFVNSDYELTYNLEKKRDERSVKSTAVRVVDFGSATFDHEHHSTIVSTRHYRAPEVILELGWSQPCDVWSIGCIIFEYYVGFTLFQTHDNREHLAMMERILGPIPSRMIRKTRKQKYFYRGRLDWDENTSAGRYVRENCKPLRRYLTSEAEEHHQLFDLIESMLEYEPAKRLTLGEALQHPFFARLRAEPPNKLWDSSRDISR
Experimental: as §1

ROCK-1(h) = ROCK-1(h) (Homo sapiens, UniProt Q13464); settings: 100 μM ATP, lower number = more robust inhibition
Experimental: as §1

MAPK1(h) = MAPK1(h) (Homo sapiens, UniProt P27361); settings: 100 μM ATP, lower number = more robust inhibition
Sequence of MAPK1(h) (P27361 2-379 limits assumed): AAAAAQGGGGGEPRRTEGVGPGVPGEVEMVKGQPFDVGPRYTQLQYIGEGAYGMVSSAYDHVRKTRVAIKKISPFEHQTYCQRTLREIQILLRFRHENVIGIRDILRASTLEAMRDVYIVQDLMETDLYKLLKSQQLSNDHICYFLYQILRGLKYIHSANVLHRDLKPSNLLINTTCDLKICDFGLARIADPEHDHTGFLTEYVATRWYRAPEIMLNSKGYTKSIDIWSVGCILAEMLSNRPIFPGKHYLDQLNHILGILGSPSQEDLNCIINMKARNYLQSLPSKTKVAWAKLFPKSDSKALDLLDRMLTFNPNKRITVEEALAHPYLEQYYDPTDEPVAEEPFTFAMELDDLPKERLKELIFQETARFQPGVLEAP
Experimental: as §1

PAK4(h) = PAK4(h) (Homo sapiens, UniProt O96013); settings: 100 μM ATP, lower number = more robust inhibition
Sequence of PAK4(h) (O96013 whole entry): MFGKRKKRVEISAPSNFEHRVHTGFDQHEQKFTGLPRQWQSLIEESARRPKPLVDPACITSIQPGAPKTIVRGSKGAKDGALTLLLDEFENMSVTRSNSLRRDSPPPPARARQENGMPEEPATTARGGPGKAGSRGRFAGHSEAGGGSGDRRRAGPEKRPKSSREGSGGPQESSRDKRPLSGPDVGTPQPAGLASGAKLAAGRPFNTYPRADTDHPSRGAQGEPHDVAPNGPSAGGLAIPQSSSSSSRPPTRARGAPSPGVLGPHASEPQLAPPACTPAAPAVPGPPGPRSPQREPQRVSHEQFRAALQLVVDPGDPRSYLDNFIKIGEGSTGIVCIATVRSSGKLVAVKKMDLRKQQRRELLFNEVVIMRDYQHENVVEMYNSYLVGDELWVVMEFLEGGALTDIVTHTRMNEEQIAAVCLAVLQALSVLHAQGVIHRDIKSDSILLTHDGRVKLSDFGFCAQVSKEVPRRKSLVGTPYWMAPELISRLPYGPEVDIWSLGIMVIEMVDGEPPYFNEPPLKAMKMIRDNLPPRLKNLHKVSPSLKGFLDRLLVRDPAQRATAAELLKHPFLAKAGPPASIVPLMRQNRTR
Experimental: as §1

TrkC(h) = TrkC(h) (Homo sapiens, UniProt Q16288); settings: 100 μM ATP, lower number = more robust inhibition
Sequence of TrkC(h) (Q16288 32-839): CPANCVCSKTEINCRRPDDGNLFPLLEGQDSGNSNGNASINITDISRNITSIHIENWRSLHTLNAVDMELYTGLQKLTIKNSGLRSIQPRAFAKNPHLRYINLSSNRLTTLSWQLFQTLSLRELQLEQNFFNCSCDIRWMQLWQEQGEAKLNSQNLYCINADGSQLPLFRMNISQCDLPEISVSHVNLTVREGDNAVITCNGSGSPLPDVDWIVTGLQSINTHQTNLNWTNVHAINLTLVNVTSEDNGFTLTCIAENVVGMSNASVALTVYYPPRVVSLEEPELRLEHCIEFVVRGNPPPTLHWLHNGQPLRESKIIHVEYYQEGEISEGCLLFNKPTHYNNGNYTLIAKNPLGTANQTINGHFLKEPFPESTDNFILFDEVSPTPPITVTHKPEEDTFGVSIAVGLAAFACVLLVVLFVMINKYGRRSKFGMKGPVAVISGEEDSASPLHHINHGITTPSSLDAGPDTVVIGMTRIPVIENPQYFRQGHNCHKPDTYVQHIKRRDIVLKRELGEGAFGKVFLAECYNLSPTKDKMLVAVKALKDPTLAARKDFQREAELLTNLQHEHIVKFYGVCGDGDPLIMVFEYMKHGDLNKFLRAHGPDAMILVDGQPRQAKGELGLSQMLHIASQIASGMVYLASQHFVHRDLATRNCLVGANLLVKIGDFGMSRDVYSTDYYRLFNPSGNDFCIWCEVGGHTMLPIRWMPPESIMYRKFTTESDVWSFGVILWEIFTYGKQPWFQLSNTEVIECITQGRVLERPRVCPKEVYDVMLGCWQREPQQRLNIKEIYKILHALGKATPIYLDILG
Experimental: as §1

ZIPK(h) = ZIPK(h) (Homo sapiens, UniProt O43293); settings: 100 μM ATP, lower number = more robust inhibition
Sequence of ZIPK(h) (O43293 whole entry): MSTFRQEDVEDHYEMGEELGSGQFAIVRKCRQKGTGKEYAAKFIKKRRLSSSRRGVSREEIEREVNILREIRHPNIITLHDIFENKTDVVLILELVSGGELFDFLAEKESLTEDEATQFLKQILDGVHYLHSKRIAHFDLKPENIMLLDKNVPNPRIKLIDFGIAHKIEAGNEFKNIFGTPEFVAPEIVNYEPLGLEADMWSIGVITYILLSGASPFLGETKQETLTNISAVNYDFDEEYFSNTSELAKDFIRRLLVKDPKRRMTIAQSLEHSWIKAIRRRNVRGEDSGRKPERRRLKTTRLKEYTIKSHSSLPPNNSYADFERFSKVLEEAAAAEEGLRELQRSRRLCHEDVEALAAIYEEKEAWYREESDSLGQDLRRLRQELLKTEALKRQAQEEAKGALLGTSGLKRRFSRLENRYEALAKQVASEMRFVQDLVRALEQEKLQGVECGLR
Experimental: as §1

Flt3(h) = target: T1, Flt3(h) (Homo sapiens, UniProt P36888); settings: for efficiency in targeting Flt3(h): 100 μM ATP, lower number = more robust inhibition
T1 sequence (P36888 27-993): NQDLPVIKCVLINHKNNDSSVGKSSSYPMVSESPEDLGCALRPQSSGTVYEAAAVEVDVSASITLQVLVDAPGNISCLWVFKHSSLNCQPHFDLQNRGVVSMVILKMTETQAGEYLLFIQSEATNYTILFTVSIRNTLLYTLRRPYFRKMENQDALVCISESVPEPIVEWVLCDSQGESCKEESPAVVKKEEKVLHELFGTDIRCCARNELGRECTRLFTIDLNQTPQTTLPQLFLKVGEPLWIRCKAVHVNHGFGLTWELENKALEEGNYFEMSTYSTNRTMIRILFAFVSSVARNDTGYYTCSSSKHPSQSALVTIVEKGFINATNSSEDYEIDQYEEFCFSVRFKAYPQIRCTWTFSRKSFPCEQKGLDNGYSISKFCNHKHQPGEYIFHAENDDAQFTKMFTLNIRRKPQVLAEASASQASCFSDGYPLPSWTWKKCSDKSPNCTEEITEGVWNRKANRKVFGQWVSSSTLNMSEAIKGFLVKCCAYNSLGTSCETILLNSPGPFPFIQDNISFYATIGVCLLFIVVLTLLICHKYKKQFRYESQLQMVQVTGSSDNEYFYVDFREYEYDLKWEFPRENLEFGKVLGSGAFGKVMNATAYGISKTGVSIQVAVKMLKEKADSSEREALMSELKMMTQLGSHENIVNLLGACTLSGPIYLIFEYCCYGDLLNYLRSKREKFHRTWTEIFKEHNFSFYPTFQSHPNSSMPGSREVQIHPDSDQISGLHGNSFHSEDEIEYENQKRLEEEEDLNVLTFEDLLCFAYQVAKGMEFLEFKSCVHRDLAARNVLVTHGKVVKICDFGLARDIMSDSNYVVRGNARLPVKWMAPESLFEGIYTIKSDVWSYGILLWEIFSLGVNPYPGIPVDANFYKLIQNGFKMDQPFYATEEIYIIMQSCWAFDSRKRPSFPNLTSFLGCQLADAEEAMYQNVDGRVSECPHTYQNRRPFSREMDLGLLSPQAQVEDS
Experimental: as §1

Axl(h) = target: T2, Axl(h) (Homo sapiens, UniProt P30530); settings: for efficiency in targeting Axl(h): 100 μM ATP, lower number = more robust inhibition
T2 sequence (P30530 26-894): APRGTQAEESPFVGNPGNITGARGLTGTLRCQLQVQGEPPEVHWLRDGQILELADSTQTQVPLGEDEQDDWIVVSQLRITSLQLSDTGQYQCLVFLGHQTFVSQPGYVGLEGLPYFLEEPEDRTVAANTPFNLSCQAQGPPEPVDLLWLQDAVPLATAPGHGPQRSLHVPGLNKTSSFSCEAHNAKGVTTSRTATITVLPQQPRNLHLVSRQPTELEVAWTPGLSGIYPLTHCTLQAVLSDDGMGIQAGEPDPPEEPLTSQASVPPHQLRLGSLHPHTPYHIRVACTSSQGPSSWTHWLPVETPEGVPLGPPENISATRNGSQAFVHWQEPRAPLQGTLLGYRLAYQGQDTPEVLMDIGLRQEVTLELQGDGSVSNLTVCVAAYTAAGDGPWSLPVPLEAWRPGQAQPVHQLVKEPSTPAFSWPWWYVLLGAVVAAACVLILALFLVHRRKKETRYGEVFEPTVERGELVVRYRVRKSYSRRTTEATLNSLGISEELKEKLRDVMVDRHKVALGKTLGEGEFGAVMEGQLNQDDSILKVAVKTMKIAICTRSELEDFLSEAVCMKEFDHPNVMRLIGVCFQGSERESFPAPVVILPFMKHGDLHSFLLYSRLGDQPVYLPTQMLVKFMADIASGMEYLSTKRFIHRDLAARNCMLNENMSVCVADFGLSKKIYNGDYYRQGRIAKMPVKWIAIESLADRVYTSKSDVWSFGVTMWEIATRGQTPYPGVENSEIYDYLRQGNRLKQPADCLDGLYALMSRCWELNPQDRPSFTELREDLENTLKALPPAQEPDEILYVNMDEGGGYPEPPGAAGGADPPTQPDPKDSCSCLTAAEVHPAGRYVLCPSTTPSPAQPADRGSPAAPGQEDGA
Experimental: as §1

CK2(h) = CK2(h) (Homo sapiens, UniProt P68400); settings: 100 μM ATP, lower number = more robust inhibition
Sequence of CK2(h) (P68400 whole entry): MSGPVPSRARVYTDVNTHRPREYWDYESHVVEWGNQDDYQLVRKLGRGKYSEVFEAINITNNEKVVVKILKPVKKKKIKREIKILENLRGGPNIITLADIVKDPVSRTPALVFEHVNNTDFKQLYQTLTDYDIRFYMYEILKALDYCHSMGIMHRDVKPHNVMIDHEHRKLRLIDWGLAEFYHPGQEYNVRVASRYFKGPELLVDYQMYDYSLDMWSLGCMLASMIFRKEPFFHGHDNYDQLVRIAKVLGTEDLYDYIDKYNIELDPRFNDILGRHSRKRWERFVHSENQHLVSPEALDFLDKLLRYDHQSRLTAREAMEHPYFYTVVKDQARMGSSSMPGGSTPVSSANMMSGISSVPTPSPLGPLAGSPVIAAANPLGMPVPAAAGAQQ
Sequence of CK2(h) (P67870 whole entry partner): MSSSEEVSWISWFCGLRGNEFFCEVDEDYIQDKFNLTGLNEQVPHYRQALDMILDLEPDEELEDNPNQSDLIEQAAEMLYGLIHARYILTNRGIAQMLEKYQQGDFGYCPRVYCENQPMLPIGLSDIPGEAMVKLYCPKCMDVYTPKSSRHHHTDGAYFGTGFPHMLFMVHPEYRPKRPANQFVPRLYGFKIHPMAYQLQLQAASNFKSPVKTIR
Experimental: as §1

CK2α2(h) = CK2α2(h) (Homo sapiens, UniProt P19784); settings: 100 μM ATP, lower number = more robust inhibition
Sequence of CK2α2(h) (P19784 whole entry): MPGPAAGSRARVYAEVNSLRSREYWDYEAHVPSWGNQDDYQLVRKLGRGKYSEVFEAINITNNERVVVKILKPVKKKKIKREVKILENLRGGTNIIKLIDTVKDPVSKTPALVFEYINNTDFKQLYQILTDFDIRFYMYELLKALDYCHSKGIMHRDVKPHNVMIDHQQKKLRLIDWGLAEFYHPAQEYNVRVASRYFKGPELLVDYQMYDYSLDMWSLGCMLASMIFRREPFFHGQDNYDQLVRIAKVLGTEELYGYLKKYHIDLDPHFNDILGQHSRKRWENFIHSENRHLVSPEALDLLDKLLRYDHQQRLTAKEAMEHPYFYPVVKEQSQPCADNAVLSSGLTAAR
Experimental: as §1

IRAK4(h) = IRAK4(h) (Homo sapiens, UniProt Q9NWZ3); settings: 100 μM ATP, lower number = more robust inhibition
Sequence of IRAK4(h) (Q9NWZ3 whole entry): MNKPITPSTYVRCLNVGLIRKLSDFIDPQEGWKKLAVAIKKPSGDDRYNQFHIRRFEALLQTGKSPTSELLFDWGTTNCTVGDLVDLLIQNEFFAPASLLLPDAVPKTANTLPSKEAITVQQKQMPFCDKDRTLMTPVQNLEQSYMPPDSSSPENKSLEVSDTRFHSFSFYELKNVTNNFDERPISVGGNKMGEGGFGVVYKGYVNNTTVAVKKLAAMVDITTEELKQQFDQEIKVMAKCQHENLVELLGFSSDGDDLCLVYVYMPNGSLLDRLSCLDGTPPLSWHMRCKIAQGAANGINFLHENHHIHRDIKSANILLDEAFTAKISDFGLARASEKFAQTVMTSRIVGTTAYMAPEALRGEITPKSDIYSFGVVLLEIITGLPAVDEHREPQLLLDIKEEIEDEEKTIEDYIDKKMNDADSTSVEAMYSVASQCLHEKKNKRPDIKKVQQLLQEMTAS
Experimental: as §1

Nc1nc(Nc2ccc3c(c2)CC[C@@H](N2CCCC2)CC3)nn1-c1cc2c(nn1)-c1ccccc1CCC2 [R428, 1H-1,2,4-Triazole-3,5-diamine, 1-(6,7-dihydro-5H-benzo[6,7]cyclohepta[1,2-c]pyridazin-3-yl) N3-[(7S)-6,7,8,9-tetrahydro-7-(1-pyrrolidinyl)-5H-benzocyclohepten-2-yl]-]
efficiency in targeting Eph A 2(h) (Eph A 2(h); R428 @ 1 μM): 54 | efficiency in targeting Eph A 2(h) (Eph A 2(h); R428 @ 10 μM): 12 | efficiency in targeting NEK2(h) (NEK2(h); R428 @ 1 μM): 60 | efficiency in targeting NEK2(h) (NEK2(h); R428 @ 10 μM): 10 | efficiency in targeting CLK2(h) (CLK2(h); R428 @ 1 μM): 78 | efficiency in targeting CLK2(h) (CLK2(h); R428 @ 10 μM): 28 | efficiency in targeting ROCK-1(h) (ROCK-1(h); R428 @ 1 μM): 93 | efficiency in targeting ROCK-1(h) (ROCK-1(h); R428 @ 10 μM): 41 | efficiency in targeting MAPK1(h) (MAPK1(h); R428 @ 1 μM): 108 | efficiency in targeting MAPK1(h) (MAPK1(h); R428 @ 10 μM): 106 | efficiency in targeting PAK4(h) (PAK4(h); R428 @ 1 μM): 97 | efficiency in targeting PAK4(h) (PAK4(h); R428 @ 10 μM): 73 | efficiency in targeting TrkC(h) (TrkC(h); R428 @ 1 μM): 47 | efficiency in targeting TrkC(h) (TrkC(h); R428 @ 10 μM): 13 | efficiency in targeting ZIPK(h) (ZIPK(h); R428 @ 1 μM): 97 | efficiency in targeting ZIPK(h) (ZIPK(h); R428 @ 10 μM): 46 | efficiency in targeting Flt3(h) (Flt3(h); R428 @ 1 μM): 9 | efficiency in targeting Flt3(h) (Flt3(h); R428 @ 10 μM): 1 | inhibition of Flt (in words) (Flt3(h); at 1 and 10 μM): potently inhibits | efficiency in targeting Axl(h) (Axl(h); R428 @ 1 μM): −1 | efficiency in targeting Axl(h) (Axl(h); R428 @ 10 μM): −1 | inhibition of AXL (in words) (Axl(h); kinase profiling results): inhibits AXL as expected | efficiency in targeting CK2(h) (CK2(h); R428 @ 1 μM): 103 | efficiency in targeting CK2(h) (CK2(h); R428 @ 10 μM): 106 | efficiency in targeting CK2α2(h) (CK2α2(h); R428 @ 1 μM): 112 | efficiency in targeting CK2α2(h) (CK2α2(h); R428 @ 10 μM): 97 | efficiency in targeting IRAK4(h) (IRAK4(h); R428 @ 1 μM): 94 | efficiency in targeting IRAK4(h) (IRAK4(h); R428 @ 10 μM): 51
